# Reference: article PMC7915275, “Mycobacterial and Human Ferrous Nitrobindins: Spectroscopic and Reactivity Properties” (International Journal of Molecular Sciences, 2021)
# Where two headings read alike, the source gives them in different places.
# What was measured:
# Hs-Nb(II) [1] = biological target: T1, Hs-Nb(II) (Homo sapiens, UniProt Q8WY91); assay: CO rebinding to Hs-Nb(II) after nanosecond laser flash photolysis; format: binding
# T1 construct: Homo sapiens Nb (Hs-Nb) is the C-terminal domain of the THAP4 protein; made in house
# T1 sequence (Q8WY91 415-577 limits assumed): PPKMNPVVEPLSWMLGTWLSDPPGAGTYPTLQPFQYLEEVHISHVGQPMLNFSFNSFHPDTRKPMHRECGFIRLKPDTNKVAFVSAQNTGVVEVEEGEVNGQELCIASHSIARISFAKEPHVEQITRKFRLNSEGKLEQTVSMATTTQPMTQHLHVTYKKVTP
# Protocol: Kinetics were analyzed according to Scheme 3.
# Mt-Nb(II) [2] = biological target: T2, Mt-Nb(II) (Mycobacterium tuberculosis, UniProt P9WFG7); assay: CO rebinding to Mt-Nb(II) after nanosecond laser flash photolysis
# T2 sequence (P9WFG7 whole entry): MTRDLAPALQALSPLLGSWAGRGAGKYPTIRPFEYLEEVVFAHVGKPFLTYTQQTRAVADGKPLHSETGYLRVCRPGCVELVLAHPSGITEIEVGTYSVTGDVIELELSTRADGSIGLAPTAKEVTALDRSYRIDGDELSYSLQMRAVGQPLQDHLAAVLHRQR
# From the text: CO rebinding kinetics to Mt-Nb(II) and Hs-Nb(II) at pH 7.4 (5.0 × 10^−2 M phosphate buffer) was obtained using the second harmonic (532 nm) of a Q-switched Nd:YAG laser (Surelite I-10, Continuum, Santa Clara, CA, USA) and the cw output of a 150 W Xe arc lamp was used as probe beam to monitor absorbance changes at 436 nm.
# The CO adducts were obtained by equilibrating solutions in either 0.2 CO atm or 1.0 CO atm. The oxidation state, the molar fraction of ferrous carbonylated Nbs, and the Nb concentration were determined spectrophotometrically. Kinetics were analyzed according to Scheme 3.
# According to Scheme 3, there are two types of processes, namely the formation of the A state directly from state B, which is much faster and independent on the ligand concentration (geminate recombination), whose extent φgem depends on the relative rates kBA(L) and kBC(L) according to the following relationship (3) φgem= kBA(L)/(kBA(L)+kBC(L)) and the observed rate rgem corresponds to (4) rgem= kBA(L)+ kBC(L) the formation of state A from state C (through the transient formation of state B), which depends on the ligand concentration (bimolecular recombination) and it is characterized by the second-order rate rbim corresponding to (5) rbim= kCB(L) × φgem
# [3] = cited from earlier work
# Rp-NP7(II) = biological target: Rp-NP7(II); parameters: method as in PMID 22594621; conditions: pH 7.5, 20.0 °C, cited from earlier work
# Rp-NP4(II) = biological target: Rp-NP4(II); parameters: method as in PMID 22594621; conditions: pH 7.5, 20.0 °C, cited from earlier work
# Ec-Mb(II) [4] = conditions: cited from earlier work
# Pc-Mb(II) [5] = assay: CO binding kinetics to Pc-Mb(II) (literature); parameters: species or system Physeter catodon
# At-Nb(II) [6] = biological target: T3, At-Nb(II) (Arabidopsis thaliana, UniProt O64527); parameters: method as in PMID 19938152; conditions: pH 7.0, 20.0 °C, cited from earlier work
# T3 construct: made in house
# T3 sequence (O64527 whole entry): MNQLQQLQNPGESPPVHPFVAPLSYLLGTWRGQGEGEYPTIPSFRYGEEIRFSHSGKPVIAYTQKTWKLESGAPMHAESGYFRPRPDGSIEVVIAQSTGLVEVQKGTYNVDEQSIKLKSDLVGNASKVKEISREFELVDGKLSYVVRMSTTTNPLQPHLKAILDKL
# Mt-Nb(II) [7] = biological target: T2, Mt-Nb(II); assay: CO binding to and dissociation from Mt-Nb(II) by rapid-mixing stopped-flow (incl. CO displacement by NO); parameters: made in house
# Hs-Nb(II) [8] = biological target: T1, Hs-Nb(II); assay: CO binding to and dissociation from Hs-Nb(II) by rapid-mixing stopped-flow (incl. CO displacement by NO); conditions: for kobs(CO): λ = 421 nm
# Protocol: Progress kinetic curves at selected wavelengths were analyzed according to Equation (1): (1) ODobs=OD0±∑i=1i−nΔODie^(−kit) where ODobs is the observed optical density at a selected wavelength and at a given time interval, OD0 is the optical density at t = 0, n is the number of exponentials, ΔODi is the optical density change associated to the exponential i, ki is the pseudo-first-order rate constant of the exponential i (i.e., kobs(CO)) and t is the time. Since data collection occurs on a logarithmic scale, experimental points in the first second represent the absolute majority (about 70 out of 100 points) of total collected ones.
# Values of the second-order rate constant for Mt-Nb(II)-CO and Hs-Nb(II)-CO formation (i.e., kon(CO)) and of the first-order rate constant for CO dissociation from Mt-Nb(II)-CO and Hs-Nb(II)-CO (i.e., koff(CO)) were obtained from the dependence of the pseudo-first-order rate constant for Mt-Nb(II) and Hs-Nb(II) carbonylation (i.e., kobs(CO)) on the ligand concentration (i.e., [CO]) according to Equation (2):kobs(CO) = kon(CO) × [CO] + koff(CO)(2)
# The values of the first-order rate constant for CO dissociation from Mt-Nb(II)-CO and Hs-Nb(II)-CO (i.e., for CO replacement by NO; koff(CO)) were also determined by mixing the Mt-Nb(II)-CO and Hs-Nb(II)-CO (final concentration, 2.0 × 10^−6 M to 5.0 × 10^−6 M; [CO] = 1.0 × 10^−4 M) solutions with the NO saturated solution (final concentration, […]), under anaerobic conditions (i.e., in the presence of 2.0 × 10^−3 M sodium dithionite), at pH 7.0 (1.0 × 10^−1 M phosphate buffer), and 25.0 °C; no gaseous phase was present. Kinetics of CO dissociation from Mt-Nb(II)-CO and Hs-Nb(II)-CO was recorded at 421 nm.
# The conversion of Mt-Nb(II)-CO and Hs-Nb(II)-CO to Mt-Nb(II)-NO and Hs-Nb(II)-NO, respectively, was analyzed in the framework of Scheme 2 [75]:
# The values of koff(CO) were determined from data analysis, according to Equation (1). The over 100-fold excess of NO over CO guarantees that the reaction proceeds rightward because kon(NO) × [NO] >> kon(CO) × [CO] [75].
# Rapid-mixing experiments were carried out employing an SX18.MV stopped-flow apparatus (Applied Photophysics, Salisbury, UK), equipped with a diode array for spectra acquisition over a 1 ms time range (the light path of the observation chamber was 10 mm) and an SFM-20/MOS-200 rapid-mixing stopped-flow apparatus (BioLogic Science Instruments, Claix, France) (the light path of the observation chamber was 10 mm).
# Pc-Mb(II) [9] = test system: Pc-Mb(II); parameters: method as in PMID 2303446; conditions: pH 7.0, 20.0 °C, cited from earlier work
# Ec-Mb(II) [10] = assay: CO binding kinetics to Ec-Mb(II) (literature); parameters: species or system Equus caballus
# Hs-Nb(II) [11] = biological target: T1, Hs-Nb(II); assay: O2 dissociation from Hs-Nb(II)-O2 by oxygen pulse experiments; format: binding; conditions: Hs-Nb(II)-O2, pH 7.0, 25.0 °C
# Protocol: (§1) Kinetics of O2 dissociation from the transient Mt-Nb(II)-O2, At-Nb(II)-O2 and Hs-Nb(II)-O2 species were investigated spectrophotometrically at pH 7.0 (1.0 × 10^−1 M phosphate buffer) and 25.0 °C by oxygen pulse experiments. This type of reaction proceeds according to Scheme 6.
# (§2) The deoxygenation of Mt-Nb(II)-O2 and Hs-Nb(II)-O2 process was followed at 431 nm. Kinetics of Mt-Nb(II)-O2 and Hs-Nb(II)-O2 deoxygenation were analyzed according to Equation (1).
# (§3) Rapid-mixing experiments were carried out employing an SX18.MV stopped-flow apparatus (Applied Photophysics, Salisbury, UK) equipped with a diode array for spectra acquisition over a 1 ms time range; the light path of the observation chamber was 10 mm.
# At-Nb(II) [12] = biological target: T3, At-Nb(II); assay: O2 dissociation from At-Nb(II)-O2 by oxygen pulse experiments; format: binding; conditions: At-Nb(II)-O2, pH 7.0, 25.0 °C
# Protocol: as §1, §2, §3
# Pc-Mb(II) [13] = test system: Pc-Mb(II); parameters: method as in PMID 5800433; conditions: pH 7.0, 20.0 °C, temperature-jump method; cited from earlier work
# Mt-Nb(II) [14] = biological target: T2, Mt-Nb(II); assay: O2 dissociation from Mt-Nb(II)-O2 by oxygen pulse experiments; format: binding; parameters: made in house; conditions: Mt-Nb(II)-O2, pH 7.0, 25.0 °C
# Protocol: as §1, §2, §3
# [15] = faster phase, Eyring plots 10.0-40.0 °C
# [16] = slower phase, Eyring plots 10.0-40.0 °C
compound,measurement,setting,value
[C-]#[O+] [CO],rgem (CO geminate recombination rate),Hs-Nb(II) [1]; 25 °C,9e+07 s⁻¹
same,kBA(CO) ≈ rgem × φgem,Hs-Nb(II) [1]; Equation (3),≈ 4.5 × 10^6 s^−1
same,kBC(CO) ≈ rgem - kBA(CO),Hs-Nb(II) [1]; escape to solvent,≈ 8.5 × 10^7 s^−1
same,ΔH1^‡ bimolecular CO binding,Hs-Nb(II) [1]; [15],9.08 ± 0.96 kcal/mol
same,ΔG1^‡ bimolecular CO binding,"Hs-Nb(II) [1]; faster phase, at 20.0 °C",8.37 ± 2.87 kcal/mol
same,"geminate CO recombination, share of total amplitude of the rebinding process",Hs-Nb(II) [1]; laser photolysis,~ 5%
same,φgem (CO geminate rebinding),Hs-Nb(II) [1]; laser photolysis,≤ 0.05
same,ΔH2^‡ bimolecular CO binding,Hs-Nb(II) [1]; [16],9.08 ± 0.96 kcal/mol
same,ΔG2^‡ bimolecular CO binding,"Hs-Nb(II) [1]; slower phase, at 20.0 °C",10 ± 1.4 kcal/mol
same,ΔH1^‡ bimolecular CO binding,Mt-Nb(II) [2]; [15],7.65 ± 0.48 kcal/mol
same,ΔG1^‡ bimolecular CO binding,"Mt-Nb(II) [2]; faster phase, at 20.0 °C",10 ± 0.72 kcal/mol
same,φgem (CO geminate rebinding),Mt-Nb(II) [2]; laser photolysis,≤ 0.05
same,ΔH2^‡ bimolecular CO binding,Mt-Nb(II) [2]; [16],8.6 ± 0.96 kcal/mol
same,ΔG2^‡ bimolecular CO binding,"Mt-Nb(II) [2]; slower phase, at 20.0 °C",10.5 ± 0.96 kcal/mol
same,solubility in the aqueous buffered solution,"[3]; p = 760.0 mm Hg, 20.0 °C, phosphate buffer pH 7.0",1030 µM
same,Kd,"Rp-NP7(II); read-out: K (=koff/kon) for CO, first value (30% phase)",0.088 nM
same,Kd,"Rp-NP7(II); read-out: K (=koff/kon) for CO, second value (70% phase) (converted)",0.015 nM
same,"koff(CO), 30% phase",Rp-NP7(II),0.0044 s⁻¹
same,"koff(CO), 70% phase",Rp-NP7(II),0.00076 s⁻¹
same,kon(CO),Rp-NP7(II),5e+07 M⁻¹ s⁻¹
same,Kd,"Rp-NP4(II); read-out: K (=koff/kon) for CO, first value (77% phase)",0.22 nM
same,Kd,"Rp-NP4(II); read-out: K (=koff/kon) for CO, second value (23% phase)",0.22 nM
same,"koff(CO), 23% phase",Rp-NP4(II),0.0041 s⁻¹
same,"koff(CO), 77% phase",Rp-NP4(II),0.0097 s⁻¹
same,"kon(CO), 23% phase",Rp-NP4(II),1.9e+07 M⁻¹ s⁻¹
same,"kon(CO), 77% phase",Rp-NP4(II),4.5e+07 M⁻¹ s⁻¹
same,koff(CO),Ec-Mb(II) [4]; footnote not given,0.035 s⁻¹
same,kon(CO),"Ec-Mb(II) [4]; pH 7.0, 20.0 °C",500000 M⁻¹ s⁻¹
same,kon(CO),"Ec-Mb(II) [4]; pH 7.0, 25.0 °C",610000 M⁻¹ s⁻¹
same,Kd,Ec-Mb(II) [4]; read-out: K (=koff/kon) for CO,57 nM
same,activation free energy ΔG^‡ of CO binding,Pc-Mb(II) [5],9.49 kcal/mol
same,Kd,At-Nb(II) [6]; read-out: K (=koff/kon) for CO,220 nM
same,koff(CO),At-Nb(II) [6],0.05 s⁻¹
same,kon(CO),At-Nb(II) [6],230000 M⁻¹ s⁻¹
same,Kd,"Mt-Nb(II) [7]; Mt-Nb(II), pH 7.0, 25.0 °C, read-out: K (=koff/kon) for CO",63000 nM
same,kon(CO),"Mt-Nb(II) [7]; Mt-Nb(II), rapid-mixing, pH 7.0, 25.0 °C",55000 M⁻¹ s⁻¹
same,koff(CO),"Mt-Nb(II) [7]; Mt-Nb(II)-CO, pH 7.0, 25.0 °C",3.5 ± 0.5 s⁻¹
same,activation free energy ΔG^‡ of CO binding,"Mt-Nb(II) [7]; Mt-Nb, from CO binding rate constant",10.8 kcal/mol
same,kobs(CO),"Hs-Nb(II) [8]; Hs-Nb(II), [CO] = 2.1 × 10^−4 M, pH 7.0, 25.0 °C",(2.4 ± 0.3) × 10^1 s^−1
same,kobs(CO),"Hs-Nb(II) [8]; Hs-Nb(II), [CO] = 4.5 × 10^−5 M, pH 7.0, 25.0 °C",8.3 ± 0.9 s⁻¹
same,kobs(CO),"Hs-Nb(II) [8]; Hs-Nb(II), [CO] = 7.0 × 10^−5 M, pH 7.0, 25.0 °C",(1.1 ± 0.1) × 10^1 s^−1
same,Kd,"Hs-Nb(II) [8]; Hs-Nb(II), pH 7.0, 25.0 °C, read-out: K (=koff/kon) for CO",38000 nM
same,kon(CO),"Hs-Nb(II) [8]; Hs-Nb(II), rapid-mixing, pH 7.0, 25.0 °C",100000 M⁻¹ s⁻¹
same,koff(CO),"Hs-Nb(II) [8]; Hs-Nb(II)-CO, pH 7.0, 25.0 °C",3.8 ± 0.5 s⁻¹
same,activation free energy ΔG^‡ of CO binding,"Hs-Nb(II) [8]; Hs-Nb, from CO binding rate constant",10.4 kcal/mol
same,kon(CO),Pc-Mb(II) [9]; rapid-mixing and laser photolysis,510000 M⁻¹ s⁻¹
same,Kd,Pc-Mb(II) [9]; read-out: K (=koff/kon) for CO,37 nM
same,koff(CO),Pc-Mb(II) [9],0.019 s⁻¹
same,activation free energy ΔG^‡ of CO binding,Ec-Mb(II) [10],9.37 kcal/mol
O=O [O2],solubility in the aqueous buffered solution,"[3]; p = 760 mm Hg, T = 20.0 °C, phosphate buffer pH 7.0, reference not given",1250 µM
same,koff(O2),Hs-Nb(II) [11],19 s⁻¹
same,koff(O2),At-Nb(II) [12],6.8 s⁻¹
same,koff(O2),Pc-Mb(II) [13],10 s⁻¹
same,koff(O2),Mt-Nb(II) [14],11 s⁻¹
